Assay results: patent US6159940A, “Method for modulating hemopoiesis” (Immunotech Developments Inc., priority 1999, dated 2000)

How the values were obtained:
[1] = test system: lymphocyte subpopulations in peripheral blood; assay: Clinical study: hemogram and immune phenotyping in patients with chronic lymphoid leukosis; format: in vivo
From the text: The study was continued in groups of patients with immune cytopenias, multiple myeloma, chronic lymphoid leukosis, lymphocytic lymphomas, lymphosarcomas (55 patients). Special attention was paid to the group of patients with P-cellular lymphoid leukosis. The peculiarity of the leukemic B-lymphocyte clone and its relatively vast representation in the peripheral blood of patients with a pronounced secondary immune deficiency makes B-cellular chronic Lymphoid leukosis a unique model for clinical studies of the effect of an immunomodulator.
Immune phenotyping is the most reliable method to determine the changes of ratios of immunocompetent cells in the peripheral blood and lymphocyte-containing organs. The method allows detection of subpopulations by the presence of cellular differentiating antigen structures on lymphocyte surface. For more trustworthy results, some patients were examined using a flow-type cytoflourimeter and monoclonal antibodies. Taking into account the contingent of the patients, the main surface structures to be examined were the following: CD45++CD14-, CD45+CD14-, CD45+CD14+, CD3+CD19-, CD3-CD19+, CD4+CD8-, CD4-CD8+, CD3+HLA- DR+, CD3+CD16,56+, CD34+, CDS+.
The dynamics of CD4+CD8- and CD4-CD8+ (T-helpers and T-suppressers) and the dynamics of other necessary CD-markers were determined in the course of treatment with H-Ile-Glu-Trp-OH. A special attention was paid to CD45++CD14- and CD45+CD14 as they characterize the proportion between normal and leukemic lymphocytes in chronic lymphoid leukosis and illustrate the influence of the immunoactive peptide on the proportion. These peculiarities connected with the characteristics of the disease allow investigation of the molecular mechanism of its genesis. In the case of an immune cytopenia most important are the quantitative ratios of CD45++CD14- and CD45+CD14- to CD4-CD8+, their reliable values can be obtained with the help of a cytofluorimeter.
One ml daily, intranasally, once or twice in divided doses, for 5 days. The course was repeated after a 3-week interval. To those patients who received a cytostatic mono- or polychemotherapy, H-Ile-Glu-Trp-OH was administered from the first day of the break in the cytostatic treatment.

[2] = Effect on arterial pressure, cats; format: in vivo
From the text: The effects of H-Ile-Glu-Trp-OH on ECG and arterial pressure were studied in guinea pigs and cats.
The influence of H-Ile-Glu-Trp-OH on arterial pressure was studied in 10 cats.

[3] = Patient 0., * % of cells in mixed population of CD45++CD14- and CD45+CD14-
[4] = Patient S., * % of cells in the CD45+CD14- subpopulation

## H-Ile-Glu-Trp-OH
[1]; Patient 0.
  % of Cells after H-Ile-Glu-Trp-OH Treatment, CD45++CD14- lymphocytes: 28%
  % of Cells after H-Ile-Glu-Trp-OH Treatment, CD45+CD14+ monocytes: 3.6%
  % of Cells after H-Ile-Glu-Trp-OH Treatment, CD45+CD14- granulocytes: 63.8%
  Absolute Count after treatment, CD45++CD14- lymphocytes: 5.8 bln/l
  number of cells with CD45++CD14- markers after treatment: grew three times
[1]; Patient 0. (before: 11.2)
  Lymphocytes absolute after treatment course: 15.4 blnd
[1]; Patient 0. (before: 17.3)
  leukocytes after treatment course: 20.8 blnd
[1]; Patient 0. (before: 65)
  Lymphocytes after treatment course: 74%
[1]; [3]
  % of Cells after H-Ile-Glu-Trp-OH Treatment, CD4+CD8- T-helpers: 8.2%
  % of Cells after H-Ile-Glu-Trp-OH Treatment, CD4-CD8+ T-suppressers: 8.1%
[1]; Patient 0., * mixed population of CD45++CD14- and CD45+CD14-
  CD4+/CD8+ ratio after H-Ile-Glu-Trp-OH Treatment: 1.0
[1]; Patient B.
  % of Cells after H-Ile-Glu-Trp-OH Treatment, CD45++CD14- lymphocytes: 9.5%
  % of Cells after H-Ile-Glu-Trp-OH Treatment, CD45+CD14+ monocytes: 2.1%
  % of Cells after H-Ile-Glu-Trp-OH Treatment, CD45+CD14- granulocytes: 86.4%
  Absolute Count after treatment, CD45++CD14- lymphocytes: 2.52 bln/l
[1]; Patient B. (before: 18.7)
  Lymphocytes absolute after treatment: 21.8 bln/1
[1]; Patient B. (before: 23,0)
  leukocytes after treatment: 26.6 bin/1
[1]; Patient B. (before: 85)
  Lymphocytes after treatment: 82%
[1]; Patient B., marked *
  % of Cells after H-Ile-Glu-Trp-OH Treatment, CD3+CD19- T-lymphocytes: 10.6%
  % of Cells after H-Ile-Glu-Trp-OH Treatment, CD3+HLA-DR+ activated T-lymphoc.: 1.31%
  % of Cells after H-Ile-Glu-Trp-OH Treatment, CD3-CD19+ B-lymphocytes: 85.3%
  % of Cells after H-Ile-Glu-Trp-OH Treatment, CD4+CD8- T-helpers: 6.4%
  % of Cells after H-Ile-Glu-Trp-OH Treatment, CD4-CD8+ T-suppressers: 3.8%
  CD4+/CD8+ ratio after H-Ile-Glu-Trp-OH Treatment: 1.7
[1]; Patient M.
  % of Cells after H-Ile-Glu-Trp-OH Treatment, CD3+CD19- T-lymphocytes: 35.6%
  % of Cells after H-Ile-Glu-Trp-OH Treatment, CD3-CD19+ B-lymphocytes: 61.2%
  % of Cells after H-Ile-Glu-Trp-OH Treatment, CD4+CD8- T-helpers: 11.6%
  % of Cells after H-Ile-Glu-Trp-OH Treatment, CD4-CD8+ T-suppressers: 30.6%
  % of Cells after H-Ile-Glu-Trp-OH Treatment, CD45++CD14- lymphocytes: 43.2%
  % of Cells after H-Ile-Glu-Trp-OH Treatment, CD45+CD14+ monocytes: 4.5%
  % of Cells after H-Ile-Glu-Trp-OH Treatment, CD45+CD14- granulocytes: 47.7%
  Absolute Count after treatment, CD45++CD14- lymphocytes: 3.715 bln/l
  CD4+/CD8+ ratio after H-Ile-Glu-Trp-OH Treatment: 0.4
[1]; Patient M. (before: 3.24)
  Lymphocytes absolute after treatment course: 3.62 bln/1
[1]; Patient M. (before: 7.9)
  leukocytes after treatment course: 8.6 blnA
[1]; Patient M. (before: 41)
  Lymphocytes after treatment course: 42%
[1]; Patient S.
  % of Cells after H-Ile-Glu-Trp-OH Treatment, CD3+CD19- T-lymphocytes: 52.0%
  % of Cells after H-Ile-Glu-Trp-OH Treatment, CD3+HLA-DR+ activated T-lymphoc.: 16.0%
  % of Cells after H-Ile-Glu-Trp-OH Treatment, CD3-CD19+ B-lymphocytes: 40.0%
  % of Cells after H-Ile-Glu-Trp-OH Treatment, CD4+CD8- T-helpers: 27.1%
  % of Cells after H-Ile-Glu-Trp-OH Treatment, CD4-CD8+ T-suppressers: 36.5%
  % of Cells after H-Ile-Glu-Trp-OH Treatment, CD45++CD14- lymphocytes: 13.5%
  % of Cells after H-Ile-Glu-Trp-OH Treatment, CD45+CD14+ monocytes: 0.8%
  % of Cells after H-Ile-Glu-Trp-OH Treatment, CD45+CD14- granulocytes: 78.0%
  Absolute Count after treatment, CD45++CD14- lymphocytes: 9.112 bln/l
  CD4+/CD8+ ratio after H-Ile-Glu-Trp-OH Treatment: 0.7
[1]; Patient S. (before: 48.04)
  Lymphocytes absolute after treatment course: 58.06 bln/1
[1]; Patient S. (before: 57.2)
  leukocytes after treatment course: 67.5 bin/1
[1]; Patient S. (before: 84)
  Lymphocytes after treatment course: 86%
[1]; Patient S., after the treatment
  count of lymphocytes belonging to the population of conventionally normal lymphocytes: doubled
[1]; [4]
  % of Cells after H-Ile-Glu-Trp-OH Treatment, CD3+CD19- T-lymphocytes: 2.6%
  % of Cells after H-Ile-Glu-Trp-OH Treatment, CD3+HLA-DR+ activated T-lymphoc.: 0.5%
  % of Cells after H-Ile-Glu-Trp-OH Treatment, CD3-CD19+ B-lymphocytes: 96.9%
  % of Cells after H-Ile-Glu-Trp-OH Treatment, CD4+CD8- T-helpers: 1.6%
  % of Cells after H-Ile-Glu-Trp-OH Treatment, CD4-CD8+ T-suppressers: 1.9%
[1]; Patient S., * in the CD45+CD14- subpopulation
  CD4+/CD8+ ratio after H-Ile-Glu-Trp-OH Treatment: 0.5
[2]
  ECG readings and arterial pressure: No significant difference from control
